From US9809521B2, “Cannabidinoid derivatives” (priority 2011, dated 2017)
Where two headings read alike, the source gives them in different places.

What was measured:
[1] = tested on: 4T1 cells; assay: 4T1 i.v. mouse model, advanced stage metastasis, treatment from day seven; assay type: in vivo; conditions: for medium increase in survival: 0.5 or 1 mg/kg daily from seven days after injection
Procedure: To determine whether CBD could inhibit the formation of lung tumor foci in more advanced stages of metastasis, mice were treated at a time point where visual lung metastatic foci were already formed (as shown at day seven in FIG. 7, panel A). Mice were injected i.v. with 4T1 cells were kept for one week in order to allow for the formation of visible lung metastatic foci. The mice were then treated with CBD.
In-vivo late stage metastatic studies using a Xenograph mouse model for human breast cancer with CBD. […] Lung metastases were generated in BALB/c mice after tail vein injection of 20×10^5 mouse 4T1 cells. […] One week after the tail vein injection of 20×10^5 mouse 4T1 cells, the tumor bearing mice were injected i.p. once a day with vehicle or 1 mg/kg and 10 mg/kg CBD for seven days. Visible lung metastases were counted and measured by using a dissecting microscope.
The activity of CBD and the O-1663 CBD analog to inhibit the formation of lung tumor foci in more advanced stages of metastasis was then compared. Mice were treated at a time point where visual lung metastatic foci were already formed. Mice were injected i.v. with 4T1 cells and kept for one week in order to allow for the formation of visible lung metastatic foci. The mice were then treated with CBD and the O-1663 CBD analog. […] A survival study was then carried out where the activity of CBD to O-1663 CBD analog was compared (FIG. 28, panel C).
In-vivo advanced stage metastasis survivability studies in a mouse model with CBD or O-1663 CBD analog. To determine whether cannabinoids could inhibit the formation of lung tumor foci in more advanced stages of metastasis, we treated mice at a time point where visual lung metastatic foci were already formed (FIG. 30, panel A). Mice injected tail vein with 4T1 cell were kept for one week in order to allow for the formation of visual lung metastatic foci measuring up to 1 mm. The mice where then treated with drug for two months.

[2] = tested on: U251 cells; assay: Organotypic brain slice invasion assay; assay type: cell-based, human; conditions: 1 μM
Procedure: Effects of CBD on GBM cell invasion in In Vivo Studies. To determine whether CBD could inhibit GBM cell invasion through intact brain tissue, an organotypic brain slice assay was utilized. GFP-labeled U251 cells were treated for two days in culture with vehicle or CBD. On the third day, the cells were harvested and transferred to the top of a 0.5 mm coronal rat brain slice obtain from a postnatal day 3 rat pup. A porous cell culture insert containing the slice was suspended for three days in a well containing conditioned media with either vehicle or 1 μM CBD. […] GBM tumors were generated in nu/nu mice by intracranial injection of U251 GBM cells. […] CBD produced a robust reduction of GBM progression, decreasing the tumor area by 95% (FIG. 14, panels B and C). […] This occurred concomitantly with a decrease in tumor cell proliferation (the number of Ki67-positive nuclei was decreased by 87%±9 (p<0.0001, Student's t-test)) (FIG. 14, panel D).

[3] = tested on: Id-1; assay: Immunohistochemical detection of Id-1 in lung metastatic foci; assay type: in vivo, mouse
Procedure: CBD down-regulates Id-1 expression and breast cancer cell proliferation in lung metastatic foci. […] Lung tissue from mice treated with vehicle or CBD (1 mg/kg) were evaluated for Id-1 expression and Ki67, a marker of cellular proliferation (FIG. 5, panel A).
Immunohistochemical detection of Id-1 and Ki67 was performed in lung tissues of vehicle and CBD treated mice. Nuclei were stained with hematoxylin. […] The intensity of the immunohistochemical (IHC) detection of Id-1 was then graded from 0 to 4.

[4] = tested on: Id-1; assay: Quantitative Western analysis of Id-1 expression in U251 cells; assay type: cell-based, human
Procedure: Quantitative Western analysis of Id-1 expression in U251 cells with or without CBD treatment. To examine whether CBD would downregulate Id-1 protein expression in a GBM based cell line, quantitative Western analysis was performed with U251 cells.

[5] = tested on: 4T1 cells; assay: Cell viability assay; assay type: cell-based, mouse; conditions: Mus musculus
Source text: The structure of O-1442 and O-1663 are almost identical with the exception of one R group. A smaller subset of the same analogs, including O-1442 and O-1663, were further screened for their ability to inhibit 4T1 breast cancer cell viability in anticipation of running in vivo experiments in immune competent mice (TABLE 5).

[6] = tested on: p8 and LC3; assay: p8 mRNA and LC3 (autophagy marker) in MDA-MB231 cells; assay type: cell-based, human; conditions: two days
[7] = tested on: ROS; assay: ROS measurement in MDA-MB231 cells; assay type: cell-based, human; conditions: for generation of ROS: two days, approximate IC50 for CBD and THC
Source text: In culture, CBD-induced generation of ROS is a primary mechanism that leads to inhibition of cell growth, invasion, and survival across multiple cancers. The generation of ROS by CBD leads to the inhibition of Id-1 expression in breast cancer cells. […] The ability of CBD and the O-1663 CBD analog to stimulate the production of ROS was next compared. […] The involvement of CB2 receptors in the productions of ROS produced by CBD and the O-1663 CBD analog was next investigated.

[8] = tested on: U251 cells; assay: Apoptosis (annexin staining, FACS); assay type: cell-based, human
Procedure: Apoptosis: Cells were grown in 6 well culture dishes and were treated with compounds of the disclosure every 24 hours for three days. […] The labeled cells were analyzed by flow cytometry. Cell Flow Cytometry in combination with PI and annexin staining was used to quantify the percentage of cells undergoing apoptosis in control and treatment groups. Percent control was calculated as annexin positive staining in treated cells/control cells×100. PI staining was used to distinguish necrotic cells from those undergoing apoptosis.
Albeit, the magnitude of these effects was reduced compared to those observed with the combination treatment.
The concentrations of the individual cannabinoids (THC and CBD) were next increased in order to attempt to match levels of apoptosis produced by the combination treatment. The purpose of these experiments was to determine whether the compounds alone recruited similar pathways as compared to the combination of THC and CBD. […] However, THC alone could not produce the level of apoptosis observed with the combination treatment (FIG. 23, panel A and B).

[9] = target: CB1 receptors (Homo sapiens, UniProt P21554); assay: Affinity for CB1 receptors; assay type: binding
Chain of CB1 receptors (P21554 whole entry): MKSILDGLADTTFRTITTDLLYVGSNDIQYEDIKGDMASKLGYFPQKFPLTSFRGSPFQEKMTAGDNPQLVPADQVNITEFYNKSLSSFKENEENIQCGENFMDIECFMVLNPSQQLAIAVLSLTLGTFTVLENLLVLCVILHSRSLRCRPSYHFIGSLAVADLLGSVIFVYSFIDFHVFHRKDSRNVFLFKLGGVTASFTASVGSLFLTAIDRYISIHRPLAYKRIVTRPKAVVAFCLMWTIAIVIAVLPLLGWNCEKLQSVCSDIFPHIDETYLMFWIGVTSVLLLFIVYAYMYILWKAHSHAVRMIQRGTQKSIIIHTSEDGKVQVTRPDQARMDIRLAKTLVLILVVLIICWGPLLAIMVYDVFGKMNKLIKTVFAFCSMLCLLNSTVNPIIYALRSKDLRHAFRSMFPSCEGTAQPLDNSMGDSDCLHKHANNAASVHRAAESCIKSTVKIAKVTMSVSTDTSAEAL

[10] = Toxicity observation in the mouse models of metastasis; conditions: in vivo

For `C=C(C)[C@@H]1CCC(C)=C[C@H]1c1c(O)cc(CCCCC)cc1O` [CBD, cannabidiol], the “reduction in the number of metastases” value ([1]; 1 mg/kg and 10 mg/kg i.p. for seven days, from one week after injection) was no less than 70%, the “median increase in survival” value ([1]; 1 mg/kg starting on day seven) was “only a day” and the “growth of established lung metastatic foci” value ([1]; 0.5, 1 or 10 mg/kg i.p. for seven days) was “dose-dependently reduced the growth of established lung metastatic foci”. The “medium increase in survival” value [1] was 4 days, the average median survival ([1]; treatment from one week after injection) was 38 days and the “invasion of U251 cells through the organotypic brain slice” value [2] was “highly effective at inhibiting invasion”. For the same molecule, the “lung foci strongly positive for Id-1” value ([3]; 1 mg/kg) was 5.6%, the “intensity of IHC detection of Id-1, grade 0 to 4, average” value ([3]; mouse, in vivo) was “around 1” and the Id-1 protein expression [4] was “concentration-dependent inhibition of Id-1 protein expression”. The IC50 ([5]; 4T1, Table 5, read-out: IC50, 4T1 cell viability) was 1.8 µM, the “up-regulation of p8 and LC3” value [6] was “did not produce up-regulation of p8 and LC3” and the “reversal of ROS in the presence of SR14458” value [7] was “small but significant reversal of ROS”. For the same molecule, the “generation of ROS” value [7] was “robust up-regulation of ROS”, the “block of apoptosis by CB2 antagonist SR144528” value ([8]; 0.5 μM SR144528, combination 1.7/0.4 μM, 2.5 μM THC, 2.0 μM CBD) was “no reversal was observed with SR144528” and the “block of apoptosis by α-tocopherol” value ([8]; 20 μM α-tocopherol, combination 1.7/0.4 μM, 2.5 μM THC, 2.0 μM CBD) was “completely blocked by α-tocopherol”. For the same molecule, the “apoptosis (annexin)” value ([8]; THC 1.7 μM, CBD 0.4 μM, three days) was “did not produce significant changes in apoptosis”.
With `CCCCC(C)(C)c1cc(O)c(C2CCC(C3CCCCC3)CC2)c(O)c1` (centres unmarked) [Compound O-1663] the “reduction of percent metastasis compared with CBD” value ([1]; 0.5 and 1 mg/kg) was “significantly more potent than CBD in reducing percent metastasis”, the “medium increase in survival” value [1] was 30 days and the “mice without visible lung metastatic foci” value ([1]; dissection microscope) was 20%. The “mice still alive at end of study” value ([1]; treatment from day seven, 2 months) was 50%, the “affinity for CB1 receptors” value [9] was “lower affinity for CB1 receptors in comparison to THC” and the IC50 ([5]; 4T1, read-out: IC50, 4T1 cell viability) was 0.83 µM. The “overt toxicity (weight, appearance, general activity)” value [10] was “No overt toxicity”, the “up-regulation of p8 and LC3” value [6] was “able to up-regulate p8 and the marker of autophagy LC3” and the “ROS reversed in the presence of SR14458” value [7] was greater than 50%. For the same molecule, the “generation of ROS” value [7] was “significantly more potent and efficacious than CBD at generating ROS”.
